Values after ≈ are worked out from the molar mass of the structure shown.
Columns and labels:
ATCC 12228 = assay: minimal inhibitory concentration, two-fold agar dilution; format: cell-based; conditions: Staphylococcus faecalis, ATCC12228, 20 h
Method: (§1) These NIC values were taken by employing a two-fold dilution method: that is, two-fold serial dilutions of each of the test compounds were made and dispersed in a Muller-Hinton agar medium; 2 μl of the standard test strain which had the 10^7 CFU (Colony Forming Unit) per ml was inoculated on the medium; and these were incubated at 37° C. for 20 hours.

[1] = test system: Acinetobacter calcoaceticus ATCC 15473; assay: as above; format: cell-based; conditions: ATCC15473, Muller-Hinton agar, 37° C., 20 hours
Method: as §1

[2] = test system: Bacillus cereus ATCC 11778; assay: as above; format: cell-based; conditions: Bacillus cereus, ATCC11778, 20 h
Method: as §1

[3] = test system: Bacillus megaterium ATCC 9885; assay: as above; format: cell-based; conditions: Priestia megaterium, ATCC9885, 20 h
Method: as §1

[4] = test system: Citrobacter freundii ATCC 8090; assay: as above; format: cell-based; conditions: ATCC8090, Muller-Hinton agar, 37° C., 20 hours
Method: as §1

[5] = test system: Enterobacter aerogenes ATCC 29751; assay: as above; format: cell-based; conditions: Klebsiella aerogenes, ATCC29751, 20 h
Method: as §1

[6] = test system: Enterobacter cloacae ATCC 27508; assay: as above; format: cell-based; conditions: ATCC27508, Muller-Hinton agar, 37° C., 20 hours
Method: as §1

[7] = test system: Klebsiella pneumoniae ATCC 10031; assay: as above; format: cell-based; conditions: ATCC10031, Muller-Hinton agar, 37° C., 20 hours
Method: as §1

[8] = test system: Micrococcus luteus ATCC 9341; assay: as above; format: cell-based; conditions: ATCC9341, Muller-Hinton agar, 37° C., 20 hours
Method: as §1

[9] = test system: Morganella morganii ATCC 8076h; assay: as above; format: cell-based; conditions: ATCC8076H, 20 h
Method: as §1

[10] = test system: Proteus mirabilis ATCC 25933; assay: as above; format: cell-based; conditions: ATCC25933, Muller-Hinton agar, 37° C., 20 hours
Method: as §1

[11] = test system: Proteus vulgaris ATCC 6059; assay: as above; format: cell-based; conditions: ATCC6059, Muller-Hinton agar, 37° C., 20 hours
Method: as §1

[12] = test system: Pseudomonas aeruginosa ATCC 25619; assay: as above; format: cell-based; conditions: ATCC25619, Muller-Hinton agar, 37° C., 20 hours
Method: as §1

[13] = test system: Pseudomonas aerugionsa ATCC 10145; assay: as above; format: cell-based; conditions: ATCC10145, Muller-Hinton agar, 37° C., 20 hours
Method: as §1

[14] = test system: Pseudomonas aerugionsa ATCC 27853; assay: as above; format: cell-based; conditions: ATCC27853, Muller-Hinton agar, 37° C., 20 hours
Method: as §1

[15] = test system: Salmonella typhimurium ATCC 14028; assay: as above; format: cell-based; conditions: Salmonella enterica, Muller-Hinton agar, 37° C., 20 hours
Method: as §1

[16] = test system: Serratia marcescens ATCC 27117; assay: as above; format: cell-based; conditions: ATCC27117, Muller-Hinton agar, 37° C., 20 hours
Method: as §1

[17] = test system: Shigella flexneri ATCC 11836; assay: as above; format: cell-based; conditions: ATCC11836, Muller-Hinton agar, 37° C., 20 hours
Method: as §1

[18] = test system: Shigella sonnei ATCC 11060; assay: as above; format: cell-based; conditions: ATCC11060, Muller-Hinton agar, 37° C., 20 hours
Method: as §1

[19] = test system: Staphylococcus aureus ATCC 6638p; assay: as above; format: cell-based; conditions: ATCC6638P, 20 h
Method: as §1

[20] = test system: Staphylococcus epidermidis ATCC 10537; assay: as above; format: cell-based; conditions: ATCC10537, Muller-Hinton agar, 37° C., 20 hours
Method: as §1

[21] = test system: Streptococcus faecalis ATCC 29212; assay: as above; format: cell-based; conditions: Enterococcus faecalis, ATCC29212, Muller-Hinton agar, 37° C., 20 hours
Method: as §1

[22] = in vivo absorbency test (plasma concentration, pharmacokinetic parameters); set-up: species or system SD rats (male); conditions: rat, in vivo, iv, 20 mg/kg
Method: In addition to the in vitro tests described above, in vivo absorbency tests for the two selected compounds of formulas (I-S-1) and (I-R-1), along with Ceftadizime, were carried out by administering intravenously, in a dose of 20 mg/kg, each of these two compounds into SD rats (male) weighing 220 to 340 g; […], which were analyzed by employing the bio-assay or agar well method. About 10 to 15 rats were used for each of the compounds.
Notes: (1) Two-Compartment Model
(3) Tested Animal: Rats(male; 220-340 g)

[23] = test system: Escherichia coli ATCC 10536; assay: minimal inhibitory concentration, two-fold agar dilution; format: cell-based; conditions: ATCC10536, Muller-Hinton agar, 37° C., 20 hours
Method: as §1

[24] = test system: Escherichia coli ATCC 25922; assay: as above; format: cell-based; conditions: ATCC25922, Muller-Hinton agar, 37° C., 20 hours
Method: as §1

[25] = test system: Providencia rettgeri ATCC 9250; assay: as above; format: cell-based; conditions: ATCC9250, Muller-Hinton agar, 37° C., 20 hours
Method: as §1

[26] = acute toxicity test, intravenous; conditions: mouse, in vivo, ICR mice, observed for 14 days
Description: The results are shown in the last row of Table 2.

Compound	MIC (ATCC 12228) [µg/mL]	MIC [1] [µg/mL]	MIC [2] [µg/mL]	MIC [3] [µg/mL]	MIC [4] [µg/mL]	MIC [5] [µg/mL]	MIC [6] [µg/mL]	MIC [7] [µg/mL]	MIC [8] [µg/mL]	MIC [9] [µg/mL]	MIC [10] [µg/mL]	MIC [11] [µg/mL]	MIC [12] [µg/mL]	MIC [13] [µg/mL]	MIC [14] [µg/mL]	MIC [15] [µg/mL]	MIC [16] [µg/mL]	MIC [17] [µg/mL]	MIC [18] [µg/mL]	MIC [19] [µg/mL]	further results
CC(C)(O/N=C(\C(=O)N[C@@H]1C(=O)N2C(C(=O)[O-])=C(C[n+]3ccccc3)CS[C@H]12)c1csc(N)n1)C(=O)O [CTZ, Ceftazidime, reference compound]	4 (≈ 7.32 µM)	4 (≈ 7.32 µM)	128 (≈ 234 µM)	0.25 (≈ 0.457 µM)	0.13 (≈ 0.238 µM)	4 (≈ 7.32 µM)	0.031 (≈ 0.0567 µM)	0.063 (≈ 0.115 µM)	0.5 (≈ 0.915 µM)	≤ 0.008	0.063 (≈ 0.115 µM)	0.063 (≈ 0.115 µM)	1 (≈ 1.83 µM)	2 (≈ 3.66 µM)	1 (≈ 1.83 µM)	0.25 (≈ 0.457 µM)	0.25 (≈ 0.457 µM)	0.063 (≈ 0.115 µM)	0.13 (≈ 0.238 µM)	16 (≈ 29.3 µM)	MIC [20]: 8 µg/mL (≈ 14.6 µM); MIC [21]: > 128 µg/mL; AUC [22]: 28100 ng·h/mL; concentration at 10 min [22]: 50000 ng/mL
C[C@@H](O/N=C(\C(=O)NC1C(=O)N2C(C(=O)[O-])=C(CSc3nc(N)cc(N)[n+]3C)CS[C@H]12)c1csc(N)n1)C(=O)O (stereo partly drawn) [I-R-2, 7-[(Z)-2-(2-aminothiazol-4-yl)-2-[(R)-1-carboxyeth-1-oxyimino]acetamido]-3-[(4,6-diamino-1-methylpyrimidinium-2-yl)thiomethyl]-3-cephem-4-carboxylate]	2 (≈ 3.28 µM)	4 (≈ 6.56 µM)	> 128	1 (≈ 1.64 µM)	0.063 (≈ 0.103 µM)	1 (≈ 1.64 µM)	0.016 (≈ 0.0262 µM)	0.031 (≈ 0.0508 µM)	0.5 (≈ 0.82 µM)	≤ 0.008	0.031 (≈ 0.0508 µM)	0.031 (≈ 0.0508 µM)	2 (≈ 3.28 µM)	2 (≈ 3.28 µM)	1 (≈ 1.64 µM)	0.13 (≈ 0.213 µM)	0.063 (≈ 0.103 µM)	0.031 (≈ 0.0508 µM)	0.031 (≈ 0.0508 µM)	4 (≈ 6.56 µM)	MIC [23]: 0.063 µg/mL (≈ 0.103 µM); MIC [24]: 0.031 µg/mL (≈ 0.0508 µM); MIC [25]: ≤ 0.008 µg/mL; MIC [20]: 2 µg/mL (≈ 3.28 µM); MIC [21]: > 128 µg/mL; LD50 at 336 h [26]: > 3000 mg/kg
